Assay results from patent US10759803B2, “Asparagine endopeptidase (AEP) inhibitors for managing cancer and compositions related thereto” (priority 2014, dated 2020).
Values belong to the molecule of their own block, whether it stands above or below them.

Legend:
AEP = biological target: T1, AEP (Homo sapiens, UniProt Q99538); assay: DTT / L-cysteine reversibility of AEP inhibition; assay type: biochemical; conditions: 10 mM DTT or L-cysteine added after 15 min
T1 construct: tested with purified active AEP, IC50 values for the top 8 candidates were found
T1 sequence (Q99538 18-323 limits assumed): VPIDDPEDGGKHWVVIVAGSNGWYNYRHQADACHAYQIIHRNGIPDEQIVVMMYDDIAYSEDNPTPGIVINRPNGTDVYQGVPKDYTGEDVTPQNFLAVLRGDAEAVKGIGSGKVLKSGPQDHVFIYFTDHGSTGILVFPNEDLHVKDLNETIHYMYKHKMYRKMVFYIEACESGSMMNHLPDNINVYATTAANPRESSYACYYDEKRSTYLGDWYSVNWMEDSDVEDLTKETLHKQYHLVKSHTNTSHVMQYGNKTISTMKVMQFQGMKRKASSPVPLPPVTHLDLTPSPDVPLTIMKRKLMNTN
Protocol: AEP was reacted with specified inhibitor, after 15 min 10 mM DTT or L-cysteine was added to the reaction and the fluorescent signal was read for an additional 15 min. At the end of the second 15 min incubation, the percentage of product formed in the presence of each compound was determined in comparison to the DMSO control reaction.
Although it is not intended that embodiments of this disclosure be limited by any particular mechanism, to gain additional insight into the mechanism utilized by the inhibitors for abrogation of AEP activity, their reversibility in the presence of free thiols was determined. The addition of a strong reducing agent, such as DTT, or a weaker reducing agent, L-cysteine, to an inhibited reaction can be used to out-compete the inhibitory agent and restore catalytic activity to an enzyme with an active-site thiol residue. Here, a similar approach was used by adding a reducing agent, either DTT or L-cysteine, to a reaction, in which AEP had been incubated with a specified inhibitor, in an attempt to reverse the effects of the inhibitor. […] For compounds BB1 and 38, this increase in enzymatic activity may be due to the reduction of a disulfide linkage between the inhibitor and the enzyme, since these compounds contain thiols. Compound 10 contains a thiocyanate and may undergoes nucleophilic attack by the enzyme's active-site thiolate to form a thioimidate enzyme-inhibitor complex. Under acidic conditions, this complex is reducible by either a strong reducing agent, such as DTT, or the weaker L-cysteine.

[1] = biological target: T2, endogenous AEP in human B lymphoblastoid pala cells (Homo sapiens, UniProt Q99538); assay: AEP inhibition in intact Pala cells; assay type: cell-based; conditions: 2 hrs incubation, residual enzymatic activity in lysate
T2 construct: human B lymphoblastoid pala cells, which are rich in endogenous AEP; endogenous in cells; host or cells: human B lymphoblastoid Pala cells
T2 sequence (Q99538 18-323): T1 sequence (Q99538 18-323 limits assumed)
Protocol: The cells were incubated with inhibitors for 2 hrs then cells washed, harvested and lysed and the residual enzymatic activity was determined. Lysate was normalized by Bradford assay and the experiment was performed in triplicate and the mean results and SEM were plotted.
In an attempt to assess the activity of the compounds in intact cells, the compounds were incubated with human B lymphoblastoid pala cells, which are rich in endogenous AEP and have been used for inhibiting AEP in cellular assay.

[2] = tested on: amyloid precursor protein (APP) cleavage; assay: APP cleavage in OGD-treated primary cortical neurons; assay type: cell-based
Protocol: A. AEP activity, measured in primary neuronal cultures with 5 μM Cbz-Ala-Ala-Asn-AMC (x-axis denotes neurons were treated with 0.1 μM or 1.0 μM specified compound). B. Caspase activity, measured in primary neuronal cultures with 5 μM Ac-Asp-Glu-Val-Asp-AMC. C. Cathepsin activity, measured in primary neuronal cultures with 5 μM D-Val-Leu-Lys-AMC. D. Inhibition of APP cleavage. Lysates of primary cortical neurons pre-incubated with compounds for 30 min, underwent OGD for 4 hrs, were reperfused for 18 hrs (normoxia neurons remained at normoxic conditions). E. APP can be cleaved in a dose-dependent manner. Lysates of primary cortical neurons pre-incubated with compounds for 30 min, underwent OGD for 4 hrs, were reperfused for 18 hrs (normoxia neurons remained at normoxic conditions).
Depriving cells of oxygen and glucose is a cellular model that is employed to trigger acidosis in cultured cells. The efficacy of the compounds in a cellular model of oxygen-glucose deprivation (OGD) was determined in an effort to mimic the effects of stroke in primary cultured neurons. As a result of depriving neurons of oxygen and glucose-containing medium, AEP activity was doubled (FIG. 7A, ‘DMSO-Norm’ compared to ‘DMSO-OGD’), while Caspase-3 and Cathepsin activities remained relatively unchanged. […] Cleavage of APP is observed in response to only DMSO treatment (FIG. 7D, lane 2), and it appears that upon the treatment of 1 μM of compounds 10, 11, and 12, and just 0.1 μM of compound s31, 38 and 64, the cleavage was blocked, presumably due to AEP inhibition.

Caco-2 monolayer = Caco-2 monolayer permeability screen
Protocol: To explore the in vitro ADME profiles of the compounds, additional tests were conducted.

CYP2C9 = CYP2C9 (Homo sapiens, UniProt P11712); assay: CYP inhibition screening, CYP2C9; assay type: in vitro ADME
Chain of CYP2C9 (P11712 whole entry): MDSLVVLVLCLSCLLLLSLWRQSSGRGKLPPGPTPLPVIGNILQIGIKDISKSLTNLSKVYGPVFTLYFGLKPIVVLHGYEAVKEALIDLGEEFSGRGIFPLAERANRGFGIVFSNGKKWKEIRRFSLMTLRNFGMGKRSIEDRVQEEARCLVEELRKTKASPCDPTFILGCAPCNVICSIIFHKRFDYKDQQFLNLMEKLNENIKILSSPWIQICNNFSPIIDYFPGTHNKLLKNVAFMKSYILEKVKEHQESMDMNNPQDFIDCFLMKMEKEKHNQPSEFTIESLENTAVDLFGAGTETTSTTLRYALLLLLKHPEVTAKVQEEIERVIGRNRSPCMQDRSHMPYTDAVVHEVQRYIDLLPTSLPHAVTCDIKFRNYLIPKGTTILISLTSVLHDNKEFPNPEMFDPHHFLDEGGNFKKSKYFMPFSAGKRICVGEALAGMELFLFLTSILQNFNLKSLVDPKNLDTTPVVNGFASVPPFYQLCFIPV

CYP2D6 = CYP2D6 (Homo sapiens, UniProt P10635); assay: CYP inhibition screening, CYP2D6; assay type: in vitro ADME
Chain of CYP2D6 (P10635 whole entry): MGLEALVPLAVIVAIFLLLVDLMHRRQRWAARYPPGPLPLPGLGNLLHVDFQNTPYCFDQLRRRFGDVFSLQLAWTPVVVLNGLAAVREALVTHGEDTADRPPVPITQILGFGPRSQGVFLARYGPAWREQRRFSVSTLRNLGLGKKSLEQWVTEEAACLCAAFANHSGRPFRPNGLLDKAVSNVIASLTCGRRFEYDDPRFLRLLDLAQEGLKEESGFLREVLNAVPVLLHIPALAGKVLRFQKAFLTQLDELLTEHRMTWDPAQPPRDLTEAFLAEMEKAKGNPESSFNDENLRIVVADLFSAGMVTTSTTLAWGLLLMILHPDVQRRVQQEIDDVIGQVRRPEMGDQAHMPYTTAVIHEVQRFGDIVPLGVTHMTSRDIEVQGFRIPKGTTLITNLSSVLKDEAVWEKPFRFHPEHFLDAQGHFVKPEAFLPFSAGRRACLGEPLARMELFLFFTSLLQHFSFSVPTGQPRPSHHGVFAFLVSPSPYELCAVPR

CYP1A2 = biological target: T3, CYP1A2 (Homo sapiens, UniProt P05177); assay: CYP inhibition screening, CYP1A2; assay type: in vitro ADME
T3 sequence (P05177 1-516): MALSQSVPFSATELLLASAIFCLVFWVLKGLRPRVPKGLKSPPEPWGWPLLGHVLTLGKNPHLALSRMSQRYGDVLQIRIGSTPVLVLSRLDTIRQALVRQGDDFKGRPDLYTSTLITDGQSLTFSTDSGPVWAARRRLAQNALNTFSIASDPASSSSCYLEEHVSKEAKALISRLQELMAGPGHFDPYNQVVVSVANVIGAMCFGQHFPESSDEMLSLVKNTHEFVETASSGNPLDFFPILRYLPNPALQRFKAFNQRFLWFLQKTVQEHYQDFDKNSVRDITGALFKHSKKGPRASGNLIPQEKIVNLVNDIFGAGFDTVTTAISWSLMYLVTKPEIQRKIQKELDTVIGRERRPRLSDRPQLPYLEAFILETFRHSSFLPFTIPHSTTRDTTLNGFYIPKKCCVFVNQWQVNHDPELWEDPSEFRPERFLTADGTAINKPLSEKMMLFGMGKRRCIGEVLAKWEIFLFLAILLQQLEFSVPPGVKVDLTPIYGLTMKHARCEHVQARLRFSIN

[3] = Mouse liver microsomal stability screen; conditions: Mouse liver microsomes
CYP3A4 = CYP3A4 (Homo sapiens, UniProt P08684); assay: CYP inhibition screening, CYP3A4-Midazolam; assay type: in vitro ADME
Chain of CYP3A4 (P08684 whole entry): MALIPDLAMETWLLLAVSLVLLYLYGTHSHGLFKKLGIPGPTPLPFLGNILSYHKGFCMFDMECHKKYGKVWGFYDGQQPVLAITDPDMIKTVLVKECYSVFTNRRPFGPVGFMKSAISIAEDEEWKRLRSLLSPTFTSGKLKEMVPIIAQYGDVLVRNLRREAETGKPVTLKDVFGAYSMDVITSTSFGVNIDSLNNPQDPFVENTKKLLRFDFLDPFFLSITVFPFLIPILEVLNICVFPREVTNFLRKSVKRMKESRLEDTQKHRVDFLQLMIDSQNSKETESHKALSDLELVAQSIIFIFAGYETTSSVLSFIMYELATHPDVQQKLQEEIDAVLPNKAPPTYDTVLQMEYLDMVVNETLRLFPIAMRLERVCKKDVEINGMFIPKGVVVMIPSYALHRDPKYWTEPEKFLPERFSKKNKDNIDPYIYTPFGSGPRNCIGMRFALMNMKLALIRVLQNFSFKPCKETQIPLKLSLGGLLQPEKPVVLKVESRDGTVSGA

[4] = Human liver microsomal stability screen; conditions: Human liver microsomes
[5] = BBB-PAMPA permeability assay; assay type: in vitro ADME
CYP3A = assay: CYP inhibition screening, CYP3A-Testosterone; assay type: in vitro ADME
CYP2C19 = CYP2C19 (Homo sapiens, UniProt P33261); assay: CYP inhibition screening, CYP2C19; assay type: in vitro ADME
Chain of CYP2C19 (P33261 whole entry): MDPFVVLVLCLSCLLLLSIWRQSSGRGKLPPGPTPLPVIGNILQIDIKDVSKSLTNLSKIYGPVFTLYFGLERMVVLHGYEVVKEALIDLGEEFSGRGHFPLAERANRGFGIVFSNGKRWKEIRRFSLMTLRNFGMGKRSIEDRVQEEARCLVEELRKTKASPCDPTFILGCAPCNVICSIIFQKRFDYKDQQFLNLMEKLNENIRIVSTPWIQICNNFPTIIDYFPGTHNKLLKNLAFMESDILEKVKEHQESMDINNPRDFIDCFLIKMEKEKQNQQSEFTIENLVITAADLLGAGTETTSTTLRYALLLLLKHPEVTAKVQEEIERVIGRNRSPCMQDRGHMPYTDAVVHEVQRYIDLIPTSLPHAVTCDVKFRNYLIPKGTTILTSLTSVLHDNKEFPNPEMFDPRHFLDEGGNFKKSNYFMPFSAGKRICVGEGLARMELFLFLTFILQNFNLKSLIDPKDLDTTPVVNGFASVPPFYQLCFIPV

Cathepsin-L = Cathepsin-L (Homo sapiens, UniProt P07711); assay: Specificity assay against Cathepsin-L; assay type: biochemical
Chain of Cathepsin-L (P07711 114-333, species assumed): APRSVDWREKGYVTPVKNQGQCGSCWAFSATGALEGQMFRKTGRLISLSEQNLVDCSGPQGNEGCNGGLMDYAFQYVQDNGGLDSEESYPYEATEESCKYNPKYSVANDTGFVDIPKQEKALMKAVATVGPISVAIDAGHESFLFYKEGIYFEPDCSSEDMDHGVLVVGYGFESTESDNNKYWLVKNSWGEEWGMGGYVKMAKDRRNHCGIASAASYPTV
Protocol: Purified recombinant enzyme was incubated with various concentrations of inhibitor in appropriate assay buffers in the presence of increasing concentrations of inhibitor. The formation of fluorescent product was monitored in duplicate reactions and the data was fit to appropriate equations to calculate the IC50 values.

Structure (SMILES): N#CSc1cnc(N)s1 [Compound 10]
AEP activity after addition of reducing agent (reversibility) (AEP): regained a substantial amount of activity
IC50 in intact Pala cells [1]: slightly larger IC50 values
APP cleavage after OGD ([2]; 1 μM compound): blocked
APP cleavage after OGD, dose dependence ([2]; FIG. 7E): dose-dependent decrease

Structure (SMILES): COc1ccc(N2CCN(C(c3ccc(N(C)C)cc3)c3nnnn3C(C)(C)C)CC2)cc1 (centres unmarked) [Compound 31]
CYP2C9 inhibition (CYP2C9; 3 μM): 47.8%
CYP2C9 inhibition (CYP2C9; 10 μM): 69.2%
CYP2D6 inhibition (CYP2D6; 3 μM): 9.9%
CYP2D6 inhibition (CYP2D6; 10 μM): 1.4%
CYP1A2 inhibition (CYP1A2; 3 μM): 13.5%
CYP1A2 inhibition (CYP1A2; 10 μM): 10.3%
Mean Remaining Parent (NADPH-free) [3]: 86%
Mean Remaining Parent (with NADPH) [3]: 16%
CYP3A4-Midazolam inhibition (CYP3A4; 3 μM): −0.9%
CYP3A4-Midazolam inhibition (CYP3A4; 10 μM): 18.1%
APP cleavage after OGD ([2]; 0.1 μM compound): blocked
Mean Remaining Parent (NADPH-free) [4]: 75%
Mean Remaining Parent (with NADPH) ([4]; 30 min): 12%
Caco-2 permeability in words (Caco-2 monolayer): highly permeable
A −>B Papp (Caco-2 monolayer; Table 1): 19.3 10^−6 cm · s^−1
B −> A Papp (Caco-2 monolayer; Table 1): 17.4 10^−6 cm · s^−1
RE (Caco-2 monolayer; Table 1): 0.9
Pe [5]: <LLOQ
CYP3A-Testosterone inhibition (CYP3A; 3 μM): 2.5%
CYP3A-Testosterone inhibition (CYP3A; 10 μM): 0.7%
CYP2C19 inhibition (CYP2C19; 3 μM): 37.7%
CYP2C19 inhibition (CYP2C19; 10 μM): 55.7%

Results, then the molecule that gave them:

A −>B Papp (Caco-2 monolayer; table of derivatives): 10.0 10^−6 cm · s^−1
B −> A Papp (Caco-2 monolayer; table of derivatives): 30.5 10^−6 cm · s^−1
RE (Caco-2 monolayer; table of derivatives): 3.0
Structure (SMILES): Cn1c(S)nc2c1c(=O)n(Cc1ccccc1)c(=O)n2C [Compound 38D-22]

A −>B Papp (Caco-2 monolayer; table of derivatives): 0.2 10^−6 cm · s^−1
RE (Caco-2 monolayer; table of derivatives): 8.1
Structure (SMILES): CNC(=C[N+](=O)[O-])NCCSCc1ccc(CN(C)C)o1 [Ranitidine, reference compound]

selectivity for AEP over Cathepsin-L (Cathepsin-L): 500 fold
A −>B Papp (Caco-2 monolayer; table of derivatives): 0.9 10^−6 cm · s^−1
B −> A Papp (Caco-2 monolayer; table of derivatives): 3.0 10^−6 cm · s^−1
RE (Caco-2 monolayer; table of derivatives): 3.3
Structure (SMILES): Cn1c(=O)c2c(nc(S)n2C)n(C)c1=O [Compound 38D-16]
